Assay results published in US20070112043A1, “Acylated and non-acylated imidazo[2,1-b]-1,3,4,-thiadiazole-2-sulfonamides, and uses thereof” (priority 2003, published 2007).
≈ marks a conversion by molar mass, not a printed value. Where “and” joins values, the source holds several entries; their conditions need not be identical. Equal values may be shown once. Entries after “also recorded” stand apart in the source; their conditions may differ. Read-outs that look alike come from different tables or passages of the source.

Assays:
[1] = system: 15N neuroblastoma cells; test: Alamar blue viability assay, 15N neuroblastoma; format: cell-based; details: for IC50: cellular viability after 48 hours, compound dissolved in DMSO
Method: In order to investigate the anti-cancer potential of compounds represented by formula I-a, 15N neuroblastoma cells lines were treated with compound and assayed for cellular viability after 48 hours. The cellular viability of 15N neuroblastomas treated with compounds 1, 5, 6, 11, and 13 (dissolved in DMSO) are summarized in Table 5 (see Compound 152).
Compounds were tested for anti-cancer properties using the Alamar blue viability assay. Daoy human medulloblastoma cells of 15N neuroblastoma cells were plated at a density of 5000 cells per well of a 96 well plate and cultured in RPMI media supplemented with antibiotics and 5% fetal bovine serum. Cells in culture were incubated with compound for 48 hours after which time Alamar blue was added to the culture media. After 4 hours media was transferred to opaque white plates and fluorescence of transformed alamar blue was measured at excitation 535/emission 595).

[2] = Microsomal stability; format: in vitro ADME
[3] = system: SCG neurons; details: cited from earlier work
[4] = Pharmacokinetics of primary sulfonamides and Na salts (oral, SC); format: in vivo; details: for Cmax: aqueous 0.5 wt/vol % CMC/0.5 wt/vol % Tween 80 (semi-)suspension
Method: HPCD formulations of compounds represented by formula I also display improved pharmacokinetic properties as compared to compounds dissolved in water.
When compound 2 is administered at 10 mg/kg SC excellent plasma drug concentrations are observed_(Cmax=2.0 μg/mL, C1/2=0.8 hrs). […]

[5] = system: sciatic nerve; details: 1 and 10 mg/kg; cited from earlier work
[6] = Solubility in water and formulations; details: for Solubility 10 wt/vol % HPCD water: Na salts in aqueous 10 wt/vol % HPCD; for Solubility in 10 wt/vol HPCD: PBS/HPCD (25:75) solution
Method: Alternatively, the sodium salt can be prepared in situ by dissolving the free acid in phosphate buffered saline (PBS) that has been buffered to a pH of 7.4. The solubility and stability of these solutions can be improved by the use of an aqueous soluble co-solvent such as, but not limited to HPCD. This solubility can be further improved by the addition of surfactants such as PEG 400. In general, the free acid is suspended in 10 wt/vol % HPDC (10 g dissolved in 100 mL water) and treated with 0.5M PBS (pH 7.4) such that the volumes are in a ratio of 75:25.

[7] = system: Male Sprague-Dawley rats; test: Rat model of cisplatin induced neuropathy (SNCV); format: in vivo; details: for Cisplatin-induced loss in SNCV: 10-30 mg/kg, data not shown; for efficacy in cisplatin model of peripheral neuropathy: dose not stated; for Cisplatin-induced attenuation of SNCV: 30 mg/kg SC
Method: (§1) Male Sprague-Dawley rats were administered 2.5 mg/kg cisplatin daily, for five consecutive days to achieve a final cumulative dose of 12.5 mg/kg. On the third day following the final cisplatin injection, animals received compounds SC at concentrations of (3, 10, and 30 mg/kg). Dosing continued Monday through Friday for three consecutive weeks. The effect of cisplatin on peripheral nerve function, and the ability of the compounds to attenuate the cisplatin effect were determined after three weeks of drug treatment by measuring the sensory nerve conduction velocity (SNCV) in the caudal nerve of the tail. Stimulating electrodes were used to deliver 2 mA pulses once per second for 1.5 min. The resulting compound sensory nerve action potentials were averaged, and the mean response onset time was determined from the averaged response. Two mean response times were determined, the second being 20 mm distal from the first. The difference in onset time between the two recordings was determined and used to calculate the conductance velocity.
Male Sprague-Dawley rats (weighing 200-225 g on arrival) were intraperitoneally administered 2.5 mg/kg cisplatin daily, for five consecutive days to achieve a final cumulative dose of 12.5 mg/kg. On the third day following the final cisplatin injection, animals received compounds SC at concentrations of (3, 10, and 30 mg/kg). Dosing continued Monday through Friday for three consecutive weeks.
as §1, with “The” for “Male Sprague-Dawley rats were administered 2.5 mg/kg cisplatin daily, for five consecutive days to achieve a final cumulative dose of 12.5 mg/kg. On the third day following the final cisplatin injection, animals received compounds SC at concentrations of (3, 10, and 30 mg/kg). Dosing continued Monday through Friday for three consecutive weeks. The”, “velocity. [formula]” for “velocity.”
The results of these experiments were combined, and ANOVA was performed, followed by a Fisher LSD test.

[8] = Stability of solutions/formulations; format: physicochemical; details: for Stability of HPCD formulation: 10 wt/vol % HPCD, room temperature; for Stability in 10 wt/vol HPCD: PBS/HPCD (25:75) solution
Source text: (§2) This is illustrated for compound 15 in Table 7.

[9] = pH of formulation; format: physicochemical; details: PBS/HPCD (25:75) solution
Source text: as §2

[10] = log P; format: physicochemical
[11] = Conversion to primary sulfonamide in rat primary hepatocytes; format: in vitro ADME; details: 90 minutes
Method: Compound 15 is converted to compound 1 in the presence of liver microsomes using the procedure described by Cresteil, T., et al. (Cresteil, T., et al. Am. Soc. Pharm. Exper. Therapeutics, 2002, 30, 438-445). Upwards of 50% conversion is observed after 60 minutes. When incubated with rat primary hepatocytes, the conversion of compounds 15, 37, and 44 to their respective primary sulfonamides, 1, 11, and 13, is observed.

[12] = system: Du145 (prostate); test: Clonogenic assay Du145; format: cell-based; details: compound 24 hours, colonies counted after 7-10 days, read-out: ED50 (the source's name)
Method: (§3) In this paradigm, Du145 prostate, HCT116 colon, 15N Neuroblastoma, IMR32 Neuroblastoma, Daoy Medulloblastoma, and MDAMB231 breast cells are individually plated and allowed to proliferate for 48 hours. Compound is added to the culture and left on for 24 hours, at which time both compound and dead cells are washed off the plate. Fresh media is added and the cells are allowed to grow for an additional 7-10 days. The remaining healthy cells reproduce and formed localized colonies. These colonies are counted and EC50 values are determined relative to non-treated controls.
(§4) Du145 prostate, HCT116 colon, 15N Neuroblastoma, IMR32 Neuroblastoma, Daoy Medulloblastoma, and MDAMB231 breast cells were plated in 6 well plates and allowed to grow for 5 days._Cells were exposed to compound for 24 hours, the culture media was removed and replaced with fresh media. The cells were kept in cultured for 7-10 days after which colonies were counted and EC50 values were determined relative to non-treated controls.

[13] = system: HCT116 (colon); test: Clonogenic assay HCT116; format: cell-based; details: compound 24 hours, colonies counted after 7-10 days, read-out: ED50 (the source's name)
Method: as §3, §4

[14] = system: MDAMB231 (breast); test: Clonogenic assay MDAMB231; format: cell-based; details: compound 24 hours, colonies counted after 7-10 days, read-out: ED50 (the source's name)
Method: as §3, §4

[15] = system: RG neurons; details: intra-vitrial injection or SC 10 mg/kg, cited from earlier work
[16] = system: Sprague Dawley rats; details: 10 mg/kg, cited from earlier work
[17] = system: 15 N (neuroblastoma); test: Clonogenic assay 15N; format: cell-based; details: compound 24 hours, colonies counted after 7-10 days, read-out: ED50 (the source's name)
Method: as §3, §4

[18] = system: Daoy (medulloblastoma); test: Clonogenic assay Daoy; format: cell-based, human; details: compound 24 hours, colonies counted after 7-10 days, read-out: ED50 (the source's name)
Method: as §3, §4

[19] = Taxol induced cell death, read-out: Taxol SCG IC50
[20] = gavage 10 mg/kg, CMC/Tween 80 (semi-)suspension
[21] = anti-NGF induced cell death, read-out: anit-NGF SCG IC50

NS(=O)(=O)c1nn2c(Br)c(-c3ccccc3)nc2s1 [5-Br-6-Ph-ITS, 5-Bromo-6-phenylmidazo[2,1-b]-1,3,4,-thiadiazole-2-sulfonamide, reference compound]
IC50 [1]: 3 µM | degradation in microsomal fractions [2]: rapidly degraded; also recorded: rapidly consumer by microsomal fractions | Microsomal Stability (1 hr) [2]: 0%

NS(=O)(=O)c1nn2cc(-c3ccc4c(c3)OCCCO4)nc2s1 [Compound 7]
IC50 [3, 19]: 7 µM

[NH-]S(=O)(=O)c1nn2cc(-c3ccccc3)nc2s1.[Na+] [Compound 2]
C1/2 ([4]; SC 10 mg/kg): 0.8 h | plasma Cmax ([4]; SC 10 mg/kg, 10 wt/vol % HPCD solution): 2000 ng/mL | C1/2 [4, 20]: 0.9 h | oral bioavailability [4, 20]: improved | Cmax ([4]; gavage 10 mg/kg): 560 ng/mL | functional recovery (toe spread) [5]: improved recovery | Solubility 10 wt/vol % HPCD water [6]: 20000 µg/mL | Solubility Water ([6]; Na salts in water): 10000 µg/mL | Cisplatin-induced loss in SNCV [7]: protective | efficacy in cisplatin model of peripheral neuropathy [7]: efficacy | Stability of HPCD formulation [8]: >14 days

CCCC(=O)NS(=O)(=O)c1nn2cc(-c3ccc(-c4cccc(C(F)(F)F)c4)cc3)nc2s1 [Compound 40]
pH [9]: 7.4 | log P [10]: 6.26 | Solubility in 10 wt/vol HPCD [6]: 5000 µg/mL (≈ 10.1 mM) | Stability in 10 wt/vol HPCD [8]: >1 weeks

CC(=O)NS(=O)(=O)c1nn2cc(-c3ccc(Oc4ccc(Cl)cc4)cc3)nc2s1 [Compound 44]
conversion rate to primary sulfonamide [11]: 12%

COc1cccc(-c2ccc(-c3cn4nc(S([NH-])(=O)=O)sc4n3)cc2)c1.[Na+] [Compound 10]
functional recovery (toe spread) [5]: improved recovery | Solubility 10 wt/vol % HPCD water [6]: 10000 µg/mL | Cisplatin-induced loss in SNCV [7]: protective | efficacy in cisplatin model of peripheral neuropathy [7]: efficacy | Stability of HPCD formulation [8]: >14 days

O=C(O)CCC(=O)NS(=O)(=O)c1nn2cc(-c3ccccc3)nc2s1 [Compound 22]
pH [9]: 7.4 | log P [10]: 2.26 | Solubility in 10 wt/vol HPCD [6]: 8000 µg/mL (≈ 21 mM) | Stability in 10 wt/vol HPCD [8]: >4 weeks

CC(=O)NS(=O)(=O)c1nn2cc(-c3ccc(N4CCOCC4)cc3)nc2s1 [Compound 31]
pH [9]: 7.4 | log P [10]: 2.48 | Solubility in 10 wt/vol HPCD [6]: 10000 µg/mL (≈ 24.5 mM) | Cisplatin-induced attenuation of SNCV [7]: protective activity | Stability in 10 wt/vol HPCD [8]: >4 weeks

CC(C)(C)OC(=O)NS(=O)(=O)c1nn2cc(-c3ccc(-c4cccc(C(F)(F)F)c4)cc3)nc2s1 [Compound 43]
pH [9]: 7.4 | log P [10]: 5.76 | Solubility in 10 wt/vol HPCD [6]: 5000 µg/mL (≈ 9.53 mM) | Stability in 10 wt/vol HPCD [8]: >1 weeks

CSCCC(NC(=O)OC(C)(C)C)C(=O)NS(=O)(=O)c1nn2cc(-c3ccccc3)nc2s1 (stereo not drawn) [Compound 23]
pH [9]: 7.4 | log P [10]: 3.37 | Solubility in 10 wt/vol HPCD [6]: 5000 µg/mL (≈ 9.77 mM) | Stability in 10 wt/vol HPCD [8]: >1 weeks

COc1cccc(-c2ccc(-c3cn4nc(S(N)(=O)=O)sc4n3)cc2)c1 [Compound 9]
IC50 [1]: 5 µM | Microsomal Stability (1 hr) [2]: 74% | IC50 [3, 19]: 3 µM

CC(=O)NCC(=O)NS(=O)(=O)c1nn2cc(-c3ccccc3)nc2s1 [Compound 20]
pH [9]: 7.4 | log P [10]: 1.45 | Solubility in 10 wt/vol HPCD [6]: 10000 µg/mL (≈ 26.4 mM) | Stability in 10 wt/vol HPCD [8]: >4 weeks

NS(=O)(=O)c1nn2cc(-c3ccc(N4CCOCC4)cc3)nc2s1 [Compound 5]
IC50 [1]: ~20 µM and 20 µM | Microsomal Stability (1 hr) [2]: 100% | IC50 [3, 19]: 7 µM | IC50 [3, 21]: 22 µM

COCC(=O)NS(=O)(=O)c1nn2cc(-c3ccc(-c4cccc(C(F)(F)F)c4)cc3)nc2s1 [Compound 39]
pH [9]: 7.4 | log P [10]: 4.85 | Solubility in 10 wt/vol HPCD [6]: 10000 µg/mL (≈ 20.1 mM) | Cisplatin-induced attenuation of SNCV [7]: protective activity | Stability in 10 wt/vol HPCD [8]: >1 weeks

CC(C)(C)OC(=O)NCC(=O)NS(=O)(=O)c1nn2cc(-c3ccccc3)nc2s1 [Compound 18]
pH [9]: 7.4 | log P [10]: 3.32 | Solubility in 10 wt/vol HPCD [6]: 10000 µg/mL (≈ 22.9 mM) | Stability in 10 wt/vol HPCD [8]: >4 weeks

NS(=O)(=O)c1nn2cc(-c3ccccc3)nc2s1 [Compound 1]
EC50 [12]: 8 µM | EC50 [13]: 12 µM | IC50 [1]: ~20 µM and 20 µM | oral bioavailability [4, 20]: moderate | Cmax ([4]; gavage 10 mg/kg): 200 ng/mL | EC50 [14]: > 5 µM | histology of RG layer [15]: healthy RG layers | electro-retinogram (ERG) ([15]; versus vehicle): significant improvements | Microsomal Stability (1 hr) [2]: 90% | weight gain ([16]; Taxol 9 mg/kg twice weekly for 3 weeks): normal weight gain | loss in foot pad contact ([16]; Taxol alone 46% loss): 23% | EC50 [17]: 7 µM | IC50 [3, 19]: 7 µM | IC50 [3, 21]: 22 µM | IC50 ([3]; cisplatin induced cell death, read-out: cisplatin SCG IC50): 5 µM | IC50 ([3]; vincristine induced cell death, read-out: vincristine SCG IC50): 10 µM | EC50 [18]: > 5 µM

CC(=O)NS(=O)(=O)c1nn2cc(-c3ccc(-c4cccc(C(F)(F)F)c4)cc3)nc2s1 [Compound 37]
pH [9]: 7.4 | log P [10]: 5.19 | dissolution ([6]; 25 mg in 1 mL PEG 400/ethanol (50:50) + ethanolamine (20 μL)): clear solution | Solubility in 10 wt/vol HPCD [6]: 10000 µg/mL (≈ 21.4 mM) | Stability in 10 wt/vol HPCD [8]: >1 weeks

CCCC(=O)NS(=O)(=O)c1nn2cc(-c3ccccc3)nc2s1 [Compound 16]
pH [9]: 7.4 | log P [10]: 3.67 | Solubility in 10 wt/vol HPCD [6]: 4000 µg/mL (≈ 11.4 mM) | Stability in 10 wt/vol HPCD [8]: >4 weeks

NS(=O)(=O)c1nn2cc(-c3ccc(-c4cccc(C(F)(F)F)c4)cc3)nc2s1 [Compound 11]
EC50 [13]: 1.5 µM | fold increase in activity over compound 1 ([1]; 15N neuroblastoma): 10 fold | IC50 [1]: 2 µM | EC50 [14]: 1 µM | Microsomal Stability (1 hr) [2]: 60% | EC50 [17]: 0.75 µM | IC50 [3, 19]: 2 µM | EC50 [18]: 1 µM
